Patent US10711000B2 (Fronthera U.S. Pharmaceuticals LLC, priority 2018, dated 2020)
Where two headings read alike, the source gives them in different places.

What was measured:
Autotaxin [1] = molecular target: T1, Autotaxin (Homo sapiens, UniProt Q13822); assay: LPA formation in pooled human plasma (ex vivo autotaxin inhibition); format: biochemical; conditions: 2 hours incubation
T1 construct: from tissue; host or cells: pooled human plasma
Procedure, shortened: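 Pooled human plasma incubated 2 h with various compound concentrations; LPA 18:2 and 20:4 quantified by LC/MS/MS (negative-ion MRM, LPA17:0 internal standard) after butanol extraction. Inhibition of LPA formation relative to untreated plasma; IC50 by non-linear regression.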

Autotaxin [2] = molecular target: T2, Autotaxin (Rattus norvegicus, UniProt Q64610); assay: Pharmacodynamics: LPA 18:2 inhibition in plasma of SD rats after oral dose; conditions: single oral dose, LPA18:2 inhibition vs plasma concentration of compound, read-out: In vivo rat IC50 (LPA 18:2) (converted)
T2 construct: from tissue; host or cells: SD rats in vivo; plasma sampled after a single oral dose
From the text: (§1) The pharmacokinetics and pharmacodynamics of test compounds after a single oral dose were investigated in SD rats, Beagle dog and Cynomolgus monkey. SD Rats (200-250 g) were purchased from Beijing Vital River Laboratory Animal Technology Co., Ltd. Male Beagle Dog, 6-9 kg, were purchased from Beijing Mashall. Male Cynomolgus monkeys, 3-5 kg, were purchased from Suzhou Xishan Zhongke Drugs Research and Development Co., Ltd. Following arrival, the animals were acclimated for 7 days in individual cages maintained at ambient temperature, 34 to 68% relative humidity, and 12-h light/dark cycles. Just prior to dose administration the rats were fasted overnight with free access to water. Animals were given 10 mL/kg of formulated compound in 0.5% methylcellulose (MC) by oral gavage, and the animals were fed four hours after dosing. The animals were manually restrained at the designated time points (pre-dose, 0.5, 1, 3, 6, 9, 12, and 24 h post-dose) to collect blood. Approximately 120 μL of blood was collected via orbital sinus into K2EDTA tubes. The blood samples were centrifuged at 5000 rpm for 10 min at 4° C. to obtain plasma samples.
Autotaxin is a secreted phosphodiesterase that converts lysophosphatidylcholine (LPC) into lysophosphatidic acid (LPA), and LPA 18:2 formation was used to evaluate the efficacy of autotaxin inhibitors. Therefore, the LPA 18:2 formation in response to drug administration was analyzed in each time point to assess the pharmacodynamics of test compounds. To determine the LPA18:2 concentration in study plasma, a 10× calibration standard of LPA 18:2 were prepared by serial dilution in butyl alcohol: 20000, 10000, 5000, 2000, 1000, 500, 200, 100, 50, 20, and 10 ng/mL. 3 μL of calibration standard solution was added into 27.0 μL of blank plasma in 1.5-mL microcentrifuge tubes to generate 1× calibration standards. The 30.0 μL of standards or study plasma was added into 1.5-mL microcentrifuge tubes. 200 μL of butyl alcohol (containing 25.0 ng/mL LPA17:0 for internal control) was added into each 1.5-mL microcentrifuge tube containing study plasma or calibration standards. After vortexing for 1 minute and centrifuging at 10000 rpm for 10 min, 180 μL of supernatant was transferred into a 96-well plate and the LPA18:2 concentration in the plasma was quantitated using LC/MS/MS together with standards. Briefly, 8 μL of the solutions were injected for LC-MS/MS analysis using an ACQUITY UPLC BEH C18 column (2.1×50 mm, 1.7 μm) with mobile phase A [20 mM NH4OAC in water (0.1% FA)] and phase B [5 mM NH4OAC in water/0.2% FA in ACN=5:95]. Mass spectrometer parameters optimization for LPA18:2 were performed by infusing standard diluted at 1 μg/mL in butyl Alcohol directly in the ionization source, at a flow of 10 μL/min. Deprotonated molecular ion at m/z 433.2 ([M−H]−) for LPA18:2, and abundant product ion at m/z 152.8 for LPA18:2 were obtained. Quantitative data were acquired in multiple reaction monitoring (MRM) negative electrospray ionization mode
The percentage of LPA18:2 inhibition was plotted against the corresponding concentration of compound and the IC50 was calculated through non-linear regression fitting.

[3] = Pharmacokinetics after a single oral dose in SD rats; format: in vivo; conditions: Sprague-Dawley, rat, plasma, single oral dose in 0.5% methylcellulose; for half-life: read-out: T½ (converted)
From the text: as §1
To determine the compound concentration in the plasma samples, a 10× calibration standard of compound were prepared by serial dilution in DMSO: 20000, 10000, 5000, 2000, 1000, 500, 200, 100, 50, 20, and 10 ng/mL. 3 μL of calibration standard solution was added into 27.0 μL of blank plasma in 1.5-mL microcentrifuge tubes to generate 1× calibration standards. The 30.0 μL of standards or study plasma was mixed with 200 μL of acetonitrile (containing 5 ng/mL verapamil for internal control) in a 1.5-mL microcentrifuge tube. After vertexing for 1 minute and centrifuging at 10000 rpm for 10 min, 180 μL of supernatant was transferred into a 96-well plate and the compound concentration in the plasma was quantitated using LC/MS/MS together with standards. Briefly, 1 μL of the solutions were injected for LC-MS/MS analysis using an Agilent Zorbax C18 column (50×2.1 mm, 3.5 μm) with mobile phase A [5 mM NH4Ac (0.1% FA)] and phase B [Methanol (0.1% FA)]. Mass spectrometer parameters optimization for compound was performed by infusing standard diluted at 1 μg/mL in water/methanol (1/1, v/v) directly in the ionization source at a flow of 10 μL/min. Quantitative data were acquired in multiple reaction monitoring (MRM) positive APCI mode.

[4] = LPA 18:2 by LC/MS/MS, read-out: LPA formation (18:2) (IC50)
[5] = LPA 20:4 by LC/MS/MS, read-out: LPA formation (20:4) (IC50)

| IC50 (Autotaxin [1]; [4]) [µM] | IC50 (Autotaxin [1]; [5]) [µM] | IC50 (Autotaxin [2]) [µM] | AUC [3] [ng·h/mL] | Cmax [3] [ng/mL] | half-life [3] [h] | Structure (SMILES) |
| --- | --- | --- | --- | --- | --- | --- |
| ≤ 0.1 | ≤ 0.1 | 0.0148 | 963 ± 501 | 177 ± 99 | 2.92 ± 0.31 | CN(c1nc(-c2ccc(F)cc2)c(C#N)s1)c1c(C2CC2)nn2cc(F)c(N3CCN(CC(=O)N4CC(O)C4)CC3)cc12 [Compound 113, 2-((2-cyclopropyl-6-fluoro-5-(4-(2-(3-hydroxyazetidin-1-yl)-2-oxoethyl)piperazin-1-yl)pyrazolo[1,5-a]pyridin-3-yl)(methyl)amino)-4-(4-fluorophenyl)thiazole-5-carbonitrile] |
| ≤ 0.1 | ≤ 0.1 | 0.016 | 1460 ± 1120 | 140 ± 102 | 3.72 ± 2.5 | CN(c1nc(-c2ccc(F)cc2)c(C#N)s1)c1c(C2CC2)nn2cc(F)c(N3CC4(CN(C(=O)[C@H]5CCOC5)C4)C3)cc12 [Compound 114, (S)-2-((2-cyclopropyl-6-fluoro-5-(6-(tetrahydrofuran-3-carbonyl)-2,6-diazaspiro[3.3]heptan-2-yl)pyrazolo[1,5-a]pyridin-3-yl)(methyl)amino)-4-(4-fluorophenyl)thiazole-5-carbonitrile] |
| ≤ 0.1 | ≤ 0.1 | 0.176 | 2210 ± 704 | 584 ± 265 | 4.36 ± 1.3 | CCn1nc2ncc(N3CC4(CN(C(=O)[C@H]5CCOC5)C4)C3)cc2c1N(C)c1nc(-c2ccc(F)cc2)c(C#N)s1 [Compound 117] |
| ≤ 0.1 | ≤ 0.1 | 0.0186 | 222 ± 160 | 96.2 ± 73 | 1.64 ± 1.27 | CCn1nc2nc(C)c(N3CCN(CC(=O)N4CC(O)C4)CC3)cc2c1N(C)c1nc(-c2ccc(F)cc2)c(C#N)s1 [Compound 119, 2-((2-ethyl-5-(4-(2-(3-hydroxyazetidin-1-yl)-2-oxoethyl)piperazin-1-yl)-6-methyl-2H-pyrazolo[3,4-b]pyridin-3-yl)(methyl)amino)-4-(4-fluorophenyl)thiazole-5-carbonitrile] |
| ≤ 0.1 | ≤ 0.1 | 0.0268 | 1090 ± 544 | 403 ± 341 | 2.99 ± 3 | CCn1nc2nc(C)c(N3CC4(CN(C(=O)C5CCOCC5)C4)C3)cc2c1N(C)c1nc(-c2ccc(F)cc2)c(C#N)s1 [Compound 122, 2-((2-ethyl-6-methyl-5-(6-(tetrahydro-2H-pyran-4-carbonyl)-2,6-diazaspiro[3.3]heptan-2-yl)-2H-pyrazolo[3,4-b]pyridin-3-yl)(methyl)amino)-4-(4-fluorophenyl)thiazole-5-carbonitrile] |
| ≤ 0.1 | ≤ 0.1 | 0.02 | 4690 ± 526 | 336 ± 33.8 | 5.41 ± 1.7 | CCc1nn2cc(C)c(N3CC4(CN(C(=O)[C@H]5CCOC5)C4)C3)cc2c1N(C)c1nc(-c2ccc(F)cc2)c(C#N)s1 [Example 97, (S)-2-((2-ethyl-6-methyl-5-(6-(tetrahydrofuran-3-carbonyl)-2,6-diazaspiro[3.3]heptan-2-yl)pyrazolo[1,5-a]pyridin-3-yl)(methyl)amino)-4-(4-fluorophenyl)thiazole-5-carbonitrile] |
| ≤ 0.1 | ≤ 0.1 | 0.0486 | 1080 ± 313 | 209 ± 58 | 4.32 ± 1.5 | [2H]c1c(F)c(N2CCN(CC(=O)N3CC(O)C3)CC2)cc2c(N(C)c3nc(-c4ccc(F)cc4)c(C#N)s3)c(CC)nn12 [Example 103, 2-((2-ethyl-6-fluoro-5-(4-(2-(3-hydroxyazetidin-1-yl)-2-oxoethyl)piperazin-1-yl)pyrazolo[1,5-a]pyridin-3-yl-7-d)(methyl)amino)-4-(4-fluorophenyl)thiazole-5-carbonitrile] |
| ≤ 0.1 | ≤ 0.1 | 0.0192 | 350 ± 156 | 29.2 ± 15 | 7.21 ± 0.98 | CCc1nn2cc(F)c(N3CC4(CN(C(=O)C5CCN(C)CC5)C4)C3)cc2c1N(C)c1nc(-c2ccc(F)cc2)c(C#N)s1 [Example 106, 2-((2-ethyl-6-fluoro-5-(6-(1-methylpiperidine-4-carbonyl)-2,6-diazaspiro[3.3]heptan-2-yl)pyrazolo[1,5-a]pyridin-3-yl)(methyl)amino)-4-(4-fluorophenyl)thiazole-5-carbonitrile] |
| ≤ 0.1 | ≤ 0.1 | 0.01 | 269 ± 85 | 67.1 ± 24 | 3.46 ± 0.21 | CCc1nn2cc(F)c(N3CCN(CC(=O)N4CC[C@@H](O)C4)CC3)cc2c1N(C)c1nc(-c2ccc(F)cc2)c(C#N)s1 [Example 109, (R)-2-((2-ethyl-6-fluoro-5-(4-(2-(3-hydroxypyrrolidin-1-yl)-2-oxoethyl)piperazin-1-yl)pyrazolo[1,5-a]pyridin-3-yl)(methyl)amino)-4-(4-fluorophenyl)thiazole-5-carbonitrile] |
| ≤ 0.1 | ≤ 0.1 | – | – | – | – | CCc1nn2cc(F)c(N3CCC4(CC3)CN(C(=O)N3CC(O)C3)C4)cc2c1N(C)c1nc(-c2ccc(F)cc2)c(C#N)s1 [Example 110, 2-((2-ethyl-6-fluoro-5-(2-(3-hydroxyazetidine-1-carbonyl)-2,7-diazaspiro[3.5]nonan-7-yl)pyrazolo[1,5-a]pyridin-3-yl)(methyl)amino)-4-(4-fluorophenyl)thiazole-5-carbonitrile] |
| ≤ 0.1 | ≤ 0.1 | – | – | – | – | CCc1nn2cc(F)c(N3CCC4(CN(C(=O)N5CC(O)C5)C4)C3)cc2c1N(C)c1nc(-c2ccc(F)cc2)c(C#N)s1 [Example 111, 2-((2-ethyl-6-fluoro-5-(2-(3-hydroxyazetidine-1-carbonyl)-2,6-diazaspiro[3.4]octan-6-yl)pyrazolo[1,5-a]pyridin-3-yl)(methyl)amino)-4-(4-fluorophenyl)thiazole-5-carbonitrile] |
| ≤ 0.1 | ≤ 0.1 | 0.0975 | 4750 ± 1430 | 460 ± 178 | 3.77 ± 0.34 | CCc1nn2cc(F)c(N3CC4(CN(C(=O)C5(O)CCOCC5)C4)C3)cc2c1N(C)c1nc(-c2ccc(F)cc2)c(C#N)s1 [Example 112, 2-[[2-ethyl-6-fluoro-5-[2-(4-hydroxytetrahydropyran-4-carbonyl)-2,6-diazaspiro[3.3]heptan-6-yl]pyrazolo[1,5-a]pyridin-3-yl]-methyl-amino]-4-(4-fluorophenyl)thiazole-5-carbonitrile] |
